Residues, ends and D or L forms follow the SMILES beside them. No end group written: not given here.
Tests used:
Type in all cases: cell-based
S. aureus = test system: S. aureus
Description: (§1) Regarding the antimicrobial polypeptide of the present invention (samples 1 to 33) and the polypeptides of comparative samples 1 to 3, the antimicrobial activities (minimum inhibitory concentration: MIC) with respect to gram-negative bacteria (E. coli) and gram-positive bacteria (S. aureus) were determined by a liquid medium dilution technique using a 96-well microplate.
(§2) More specifically, liquid bouillon media (“NUTRIENT BROTH Dehydraged” manufactured by DIFCO) in a polypeptide concentration of 500, 250, 125, 62.5, 31.3, 15.6, 7.8, 3.9, 1.9, 1.0 and 0.5 μM were prepared, and filled in a 96-well microplate. On the other hand, bacteria suspension (about 2×10^6 cells/mL) that had been stationary cultured at 37° C. for 18 hours with LB Broth, Lennox (manufactured by DIFCO) were inoculated to each well of the 96-well microplate in an equal amount to that of the pharmaceutical solution (the above-described polypeptide-containing bouillon medium). After inoculation, culture was started in an incubator at 37° C., and it was examined based on the turbidity after 24 hours and 48 hours whether or not bacteria are present. The minimum of the polypeptide concentrations in which no increase in the turbidity caused by bacteria at the time of measurement was observed was defined as MIC in this example.
(§3) The unit of MIC in Table 2 is μM. […]

E. coli = test system: E. coli
Description: as §1, §2, §3

[1] = test system: gram-negative bacteria (E. coli) and gram-positive bacteria (S. aureus); test: antimicrobial test of Example 2, results summed up in words; settings: summary of Table 2, E. coli and S. aureus
Description: as §1, §2

[2] = test system: Escherichia coli O157:H7 sakai; settings: O157:H7, 24 h
Description: as §2
Next, regarding the polypeptides of the samples 16, 17, 10, 14, and 20, the same antimicrobial test (MIC measurement test) as in Example 2 was performed with respect to various bacteria (see Table 3), and the antimicrobial spectra of these polypeptides were evaluated.

| Compound | antimicrobial activity (MIC) S. aureus after 24h (S. aureus) | antimicrobial activity (MIC) S. aureus after 48h (S. aureus) | antimicrobial activity (MIC) E. coli after 24h (E. coli) | antimicrobial activity (MIC) E. coli after 48h (E. coli) | antimicrobial activities (in words) [1] | antimicrobial activity after 24 hours: MIC [2] |
| --- | --- | --- | --- | --- | --- | --- |
| N=C(N)NCCC[C@H](NC(=O)[C@H](CCCNC(=N)N)NC(=O)[C@H](CCCCN)NC(=O)[C@@H](N)CCCNC(=N)N)C(=O)O [comparative sample 1, RKRR, reference compound] (H-RKRR-OH; N-terminus and C-terminus assumed) | >500 µM | >500 µM | >500 µM | >500 µM | – | – |
| CC(C)[C@H](NC(=O)[C@H](CCCCN)NC(=O)[C@H](CCCNC(=N)N)NC(=O)[C@H](CCCCN)NC(=O)[C@H](CCCCN)NC(=O)[C@H](CCCCN)NC(=O)[C@@H]1CCCN1)C(=O)O [sample 1, PKKKRKV] | 62.5 µM | 125.0 µM | 62.5 µM | >500 µM | – | – |
| N=C(N)NCCC[C@H](NC(=O)[C@H](CCCNC(=N)N)NC(=O)[C@H](CCCNC(=N)N)NC(=O)[C@H](CCC(N)=O)NC(=O)[C@H](CCCNC(=N)N)NC(=O)[C@H](CCCNC(=N)N)NC(=O)[C@H](CCCCN)NC(=O)[C@H](CCCCN)NC(=O)[C@@H](N)CCCNC(=N)N)C(=O)O [sample 5, RKKRRQRRR] | – | – | – | – | particularly high antimicrobial activities | – |
| LALKLAGLDI [compound 3, LALKLAGLDI, reference compound] | >500 µM | >500 µM | >500 µM | >500 µM | – | – |
| LALKLAGLDIRKKKRKV [sample 15, LALKLAGLDIRKKKRKV] | 1.9 µM | 3.9 µM | 3.9 µM | 3.9 µM | high antimicrobial activities | – |
| LKRKLQR [sample 27, LKRKLQR] | 125.0 µM | 125.0 µM | 500.0 µM | >500 µM | – | – |
| LKRKLQRLKRKLQR [sample 30, LKRKLQRLKRKLQR] | 3.9 µM | 3.9 µM | 3.9 µM | 3.9 µM | – | – |
| LPPLERLTL [comparative sample 2, LPPLERLTL, reference compound] | >500 µM | >500 µM | >500 µM | >500 µM | – | – |
| LPPLERLTLPKKKRKV [sample 9, LPPLERLTLPKKKRKV] | 3.9 µM | 3.9 µM | 31.3 µM | 31.3 µM | – | – |
| LPPLERLTLRKKKRKV [sample 13, LPPLERLTLRKKKRKV] | 3.9 µM | 3.9 µM | 15.6 µM | 15.6 µM | – | – |
| MRKKKRKVRKKKRKV [sample 33, MRKKKRKVRKKKRKV] | 1.9 µM | 1.9 µM | 3.9 µM | 3.9 µM | – | – |
| PKKKRKVALGKLALGKL [sample 31, PKKKRKVALGKLALGKL] | 3.9 µM | 7.8 µM | 7.8 µM | 7.8 µM | – | – |
| PKKKRKVLPPLERLTL [sample 8, PKKKRKVLPPLERLTL] | 3.9 µM | 3.9 µM | 31.3 µM | 31.3 µM | – | – |
| PKKKRKVLPPLERLTLPKKKRKV [sample 11] | 1.9 µM | 1.9 µM | 3.9 µM | 3.9 µM | – | – |
| PKKKRKVPKKKRKV [sample 16, PKKKRKVPKKKRKV] | – | – | – | – | – | 17.9 µM |
| PKKKRKVPPRKKRTVV [sample 19, PKKKRKVPPRKKRTVV] | 7.8 µM | 7.8 µM | 3.9 µM | 3.9 µM | – | – |

| Compound | antimicrobial activity (MIC) S. aureus after 24h (S. aureus) | antimicrobial activity (MIC) S. aureus after 48h (S. aureus) | antimicrobial activity (MIC) E. coli after 24h (E. coli) | antimicrobial activity (MIC) E. coli after 48h (E. coli) | antimicrobial activities (in words) [1] | antimicrobial activity after 24 hours: MIC [2] |
| --- | --- | --- | --- | --- | --- | --- |
| PKKKRRV [sample 26, PKKKRRV] | 125.0 µM | 125.0 µM | 62.5 µM | 500.0 µM | – | – |
| PPRKKRTVV [sample 4, PPRKKRTVV] | 125.0 µM | 125.0 µM | 250.0 µM | >500 µM | – | – |
| PRRRK [sample 6, PRRRK] | 250.0 µM | 500.0 µM | >500 µM | >500 µM | – | – |
| PRRRK-NH2 [sample 23, PRRRK] | 7.8 µM | 15.6 µM | 31.3 µM | 31.3 µM | – | – |
| PRRRKPRRRK [sample 18, PRRRKPRRRK] | 7.8 µM | 7.8 µM | 3.9 µM | 3.9 µM | – | – |
| RIRKKLR [sample 3, RIRKKLR] | 62.5 µM | 62.5 µM | 62.5 µM | 62.5 µM | – | – |
| RKKKRKV-NH2 [sample 24, RKKKRKV-CONH2] | 1.0 µM | 1.0 µM | 3.9 µM | 15.6 µM | higher antimicrobial activities | – |
| RKKKRKV-OH [sample 7, RKKKRKV] | 15.6 µM | 31.3 µM | 62.5 µM | 500.0 µM | – | – |
| RKKKRKVKRKKKR [sample 29, RKKKRKVKRKKKR] | 3.9 µM | 7.8 µM | 1.0 µM | 1.0 µM | particularly high antimicrobial activities | – |
| RKKKRKVLPPLERLTL [sample 12, RKKKRKVLPPLERLTL] | 3.9 µM | 3.9 µM | 15.6 µM | 15.6 µM | – | – |
| RKKKRKVRKKKRKV-NH2 [sample 25, RKKKRKVRKKKRKV-CONH2] | 1.9 µM | 1.9 µM | 3.9 µM | 3.9 µM | – | – |
| RKKKRKVRKKKRKVRKKKRKV [sample 21] | 0.5 µM | 0.5 µM | 1.9 µM | 1.9 µM | – | – |
| RKKKRKVRKKKRKVRKKKRKVRKKKRKV [sample 22] | 1.0 µM | 1.0 µM | 1.9 µM | 1.9 µM | – | – |
| RKKKRKVVKRKKKR [sample 28, RKKKRKVVKRKKKR] | 3.9 µM | 7.8 µM | 1.0 µM | 1.0 µM | particularly high antimicrobial activities | – |
| RQARRNRRRRWR [sample 2, RQARRNRRRRWR] | – | – | – | – | particularly high antimicrobial activities | – |
| RQARRNRRRRWRLPPLERLTLD [sample 10] | – | – | – | – | high antimicrobial activities | – |
